Key:
Experiment in all cases: KINOMEscan competition binding
Details in all cases: compound 10.0 µM
CDK2 (human) = CDK2 (human) (UniProt P24941)
CAMK2D (human) = CAMK2D (human) (UniProt Q13557)
PRKAA2 (human) = PRKAA2 (human) (UniProt P54646)
NLK (human) = NLK (human) (UniProt Q9UBE8)
RPS6KA6 KD2 (human) = RPS6KA6 KD2 (human) (UniProt Q9UK32)
CAMKK1 (human) = CAMKK1 (human) (UniProt Q8N5S9)
TAOK1 (human) = TAOK1 (human) (UniProt Q7L7X3)
CAMK4 (human) = CAMK4 (human) (UniProt Q16566)
CAMK1G (human) = CAMK1G (human) (UniProt Q96NX5)
CAMK1G (human), sequence (Q96NX5 whole entry, looked up): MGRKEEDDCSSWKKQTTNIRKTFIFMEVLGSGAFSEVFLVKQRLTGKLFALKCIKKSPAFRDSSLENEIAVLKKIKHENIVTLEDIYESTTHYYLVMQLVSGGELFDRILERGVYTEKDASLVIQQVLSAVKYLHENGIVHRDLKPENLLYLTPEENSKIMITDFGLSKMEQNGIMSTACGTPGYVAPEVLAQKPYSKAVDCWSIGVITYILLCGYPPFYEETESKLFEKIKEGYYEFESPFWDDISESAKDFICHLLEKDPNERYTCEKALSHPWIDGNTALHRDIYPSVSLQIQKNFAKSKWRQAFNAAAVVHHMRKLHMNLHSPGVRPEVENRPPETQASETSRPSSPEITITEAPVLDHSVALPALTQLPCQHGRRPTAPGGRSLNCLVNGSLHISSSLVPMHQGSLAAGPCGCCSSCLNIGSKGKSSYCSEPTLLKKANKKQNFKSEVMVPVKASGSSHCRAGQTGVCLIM

MYLK4 (human) = MYLK4 (human) (UniProt Q86YV6)
TLK2 (human) = TLK2 (human) (UniProt Q86UE8)
MYO3B (human) = MYO3B (human) (UniProt Q8WXR4)
MAP3K9 (human) = MAP3K9 (human) (UniProt P80192)
MAP3K9 (human), sequence (P80192 whole entry, looked up): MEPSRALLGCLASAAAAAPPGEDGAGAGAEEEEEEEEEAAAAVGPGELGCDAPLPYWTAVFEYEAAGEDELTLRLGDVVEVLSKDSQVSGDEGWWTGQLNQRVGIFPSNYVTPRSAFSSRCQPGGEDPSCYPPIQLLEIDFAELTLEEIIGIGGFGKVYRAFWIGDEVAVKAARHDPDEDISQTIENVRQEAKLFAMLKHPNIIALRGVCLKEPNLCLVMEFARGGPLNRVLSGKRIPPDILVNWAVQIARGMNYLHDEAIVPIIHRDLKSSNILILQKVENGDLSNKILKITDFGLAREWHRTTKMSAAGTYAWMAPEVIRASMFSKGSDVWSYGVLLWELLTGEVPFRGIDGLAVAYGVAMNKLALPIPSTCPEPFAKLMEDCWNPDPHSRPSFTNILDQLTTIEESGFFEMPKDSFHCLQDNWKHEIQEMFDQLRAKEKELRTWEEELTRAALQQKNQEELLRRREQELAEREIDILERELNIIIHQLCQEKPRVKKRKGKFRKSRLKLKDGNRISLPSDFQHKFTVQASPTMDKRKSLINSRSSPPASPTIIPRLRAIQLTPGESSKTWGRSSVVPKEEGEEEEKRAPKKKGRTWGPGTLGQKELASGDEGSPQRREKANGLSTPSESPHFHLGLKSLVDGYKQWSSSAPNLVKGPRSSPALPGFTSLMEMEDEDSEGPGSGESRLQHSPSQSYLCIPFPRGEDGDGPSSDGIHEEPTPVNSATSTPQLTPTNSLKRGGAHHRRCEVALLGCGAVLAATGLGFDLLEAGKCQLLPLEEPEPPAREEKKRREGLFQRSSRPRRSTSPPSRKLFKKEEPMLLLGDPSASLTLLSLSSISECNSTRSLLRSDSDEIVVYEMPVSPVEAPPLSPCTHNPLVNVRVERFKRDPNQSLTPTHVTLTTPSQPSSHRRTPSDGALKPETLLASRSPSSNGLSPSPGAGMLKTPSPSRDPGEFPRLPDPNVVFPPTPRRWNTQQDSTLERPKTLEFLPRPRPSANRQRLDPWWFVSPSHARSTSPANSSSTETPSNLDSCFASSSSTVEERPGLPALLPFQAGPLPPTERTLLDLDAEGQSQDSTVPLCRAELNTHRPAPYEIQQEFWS

PRKACA (human) = PRKACA (human) (UniProt P17612)
EPHA4 (human) = EPHA4 (human) (UniProt P54764)
MARK3 (human) = MARK3 (human) (UniProt P27448)
MARK3 (human), sequence (P27448 whole entry, looked up): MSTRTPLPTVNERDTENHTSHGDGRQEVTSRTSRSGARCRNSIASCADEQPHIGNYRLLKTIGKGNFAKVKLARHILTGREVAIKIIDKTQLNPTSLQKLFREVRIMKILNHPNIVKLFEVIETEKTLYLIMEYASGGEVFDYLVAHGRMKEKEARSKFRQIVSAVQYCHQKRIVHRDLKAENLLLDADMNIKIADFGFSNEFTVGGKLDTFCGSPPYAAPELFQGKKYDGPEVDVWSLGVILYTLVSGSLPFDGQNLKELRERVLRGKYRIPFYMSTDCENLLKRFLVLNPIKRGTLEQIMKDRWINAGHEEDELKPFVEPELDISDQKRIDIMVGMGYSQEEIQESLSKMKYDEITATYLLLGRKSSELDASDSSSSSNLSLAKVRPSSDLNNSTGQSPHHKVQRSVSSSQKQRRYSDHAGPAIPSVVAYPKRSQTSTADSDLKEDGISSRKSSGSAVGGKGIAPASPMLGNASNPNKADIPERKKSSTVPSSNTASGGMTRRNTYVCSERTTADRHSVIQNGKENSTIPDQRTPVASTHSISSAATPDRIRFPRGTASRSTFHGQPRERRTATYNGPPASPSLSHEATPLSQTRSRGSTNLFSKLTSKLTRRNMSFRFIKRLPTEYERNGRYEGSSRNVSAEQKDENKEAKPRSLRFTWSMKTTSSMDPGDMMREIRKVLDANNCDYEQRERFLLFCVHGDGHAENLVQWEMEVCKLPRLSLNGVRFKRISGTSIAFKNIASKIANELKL

SRMS (human) = SRMS (human) (UniProt Q9H3Y6)
TNIK (human) = TNIK (human) (UniProt Q9UKE5)
TNIK (human), sequence (Q9UKE5 whole entry, looked up): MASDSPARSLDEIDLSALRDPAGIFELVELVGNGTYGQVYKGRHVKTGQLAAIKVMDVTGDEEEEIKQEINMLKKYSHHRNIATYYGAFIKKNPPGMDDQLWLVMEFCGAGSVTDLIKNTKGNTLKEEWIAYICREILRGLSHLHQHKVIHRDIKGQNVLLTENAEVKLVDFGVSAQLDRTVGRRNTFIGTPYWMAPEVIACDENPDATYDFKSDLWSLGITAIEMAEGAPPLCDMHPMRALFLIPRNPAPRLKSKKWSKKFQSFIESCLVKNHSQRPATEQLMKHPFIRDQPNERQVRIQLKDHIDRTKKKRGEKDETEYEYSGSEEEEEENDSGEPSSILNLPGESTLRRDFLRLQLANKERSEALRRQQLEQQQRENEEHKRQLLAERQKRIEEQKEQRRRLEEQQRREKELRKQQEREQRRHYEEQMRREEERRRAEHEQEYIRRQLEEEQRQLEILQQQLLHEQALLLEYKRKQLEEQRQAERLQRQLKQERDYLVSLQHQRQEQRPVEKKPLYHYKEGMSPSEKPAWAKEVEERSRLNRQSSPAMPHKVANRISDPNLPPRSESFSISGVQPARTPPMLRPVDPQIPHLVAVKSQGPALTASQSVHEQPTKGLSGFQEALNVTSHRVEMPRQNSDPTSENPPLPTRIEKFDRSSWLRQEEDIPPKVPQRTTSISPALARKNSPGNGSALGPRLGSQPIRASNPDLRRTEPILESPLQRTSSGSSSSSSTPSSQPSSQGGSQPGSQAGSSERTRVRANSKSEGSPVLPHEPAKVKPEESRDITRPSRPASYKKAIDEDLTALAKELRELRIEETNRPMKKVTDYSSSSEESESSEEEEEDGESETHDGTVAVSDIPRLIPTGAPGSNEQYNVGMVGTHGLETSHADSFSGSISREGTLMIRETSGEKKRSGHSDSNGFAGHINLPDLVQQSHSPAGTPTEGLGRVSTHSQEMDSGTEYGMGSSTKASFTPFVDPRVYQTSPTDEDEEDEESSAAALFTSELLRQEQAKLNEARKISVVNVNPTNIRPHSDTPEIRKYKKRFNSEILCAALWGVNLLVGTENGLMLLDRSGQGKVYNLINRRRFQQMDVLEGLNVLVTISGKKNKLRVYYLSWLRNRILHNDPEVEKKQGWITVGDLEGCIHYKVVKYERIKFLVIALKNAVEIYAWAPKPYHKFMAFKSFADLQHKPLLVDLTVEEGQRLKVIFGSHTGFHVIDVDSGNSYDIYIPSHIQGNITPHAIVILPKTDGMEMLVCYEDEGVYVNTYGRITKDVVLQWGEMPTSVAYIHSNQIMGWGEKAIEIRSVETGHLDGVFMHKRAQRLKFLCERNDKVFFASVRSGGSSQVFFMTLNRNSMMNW

CDK16 (human) = CDK16 (human) (UniProt Q00536)
RIOK2 (human) = RIOK2 (human) (UniProt Q9BVS4)
DAPK3 (human) = DAPK3 (human) (UniProt O43293)
PRKACB (human) = PRKACB (human) (UniProt P22694)
ABL2 (human) = ABL2 (human) (UniProt P42684)
SIK1 (human) = SIK1 (human) (UniProt P57059)
MAPK8 (human) = MAPK8 (human) (UniProt P45983)
PAK1 (human) = PAK1 (human) (UniProt Q13153)
FGFR4 (human) = FGFR4 (human) (UniProt P22455)
EPHA2 (human) = EPHA2 (human) (UniProt P29317)
PTK2B (human) = PTK2B (human) (UniProt Q14289)
RIOK3 (human) = RIOK3 (human) (UniProt O14730)
AXL (human) = AXL (human) (UniProt P30530)
AXL (human), sequence (P30530 whole entry, looked up): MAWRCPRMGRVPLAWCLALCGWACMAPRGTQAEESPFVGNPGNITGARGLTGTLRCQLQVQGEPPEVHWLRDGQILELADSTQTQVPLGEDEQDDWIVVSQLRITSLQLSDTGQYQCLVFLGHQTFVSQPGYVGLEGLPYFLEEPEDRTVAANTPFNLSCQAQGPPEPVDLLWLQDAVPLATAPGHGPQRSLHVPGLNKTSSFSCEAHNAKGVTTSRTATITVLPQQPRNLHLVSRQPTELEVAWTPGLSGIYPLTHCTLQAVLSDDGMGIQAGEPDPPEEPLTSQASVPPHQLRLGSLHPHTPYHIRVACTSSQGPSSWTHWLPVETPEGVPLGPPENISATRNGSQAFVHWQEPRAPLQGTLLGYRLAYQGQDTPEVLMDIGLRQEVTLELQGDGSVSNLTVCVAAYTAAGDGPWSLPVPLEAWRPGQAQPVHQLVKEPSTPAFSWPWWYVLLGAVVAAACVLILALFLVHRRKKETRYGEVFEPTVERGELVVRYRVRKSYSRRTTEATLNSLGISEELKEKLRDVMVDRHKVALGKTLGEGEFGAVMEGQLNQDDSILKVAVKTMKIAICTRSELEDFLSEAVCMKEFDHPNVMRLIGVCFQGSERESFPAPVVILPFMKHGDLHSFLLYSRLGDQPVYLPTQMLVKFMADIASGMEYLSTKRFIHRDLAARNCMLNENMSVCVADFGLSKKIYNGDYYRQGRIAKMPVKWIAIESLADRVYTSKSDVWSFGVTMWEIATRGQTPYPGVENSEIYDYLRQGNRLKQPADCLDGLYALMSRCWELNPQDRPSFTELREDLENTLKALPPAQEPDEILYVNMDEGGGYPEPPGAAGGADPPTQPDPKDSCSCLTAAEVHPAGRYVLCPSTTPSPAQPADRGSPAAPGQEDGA

SBK1 (human) = SBK1 (human) (UniProt Q52WX2)
ERN1 (human) = ERN1 (human) (UniProt O75460)
MAP3K1 (human) = MAP3K1 (human) (UniProt Q13233)
MAP3K15 (human) = MAP3K15 (human) (UniProt Q6ZN16)
IRAK1 (human) = IRAK1 (human) (UniProt P51617)
HIPK2 (human) = HIPK2 (human) (UniProt Q9H2X6)

Measured: kinase still bound, per cent of control

CAMK4 (human), sequence (Q16566 whole entry, looked up): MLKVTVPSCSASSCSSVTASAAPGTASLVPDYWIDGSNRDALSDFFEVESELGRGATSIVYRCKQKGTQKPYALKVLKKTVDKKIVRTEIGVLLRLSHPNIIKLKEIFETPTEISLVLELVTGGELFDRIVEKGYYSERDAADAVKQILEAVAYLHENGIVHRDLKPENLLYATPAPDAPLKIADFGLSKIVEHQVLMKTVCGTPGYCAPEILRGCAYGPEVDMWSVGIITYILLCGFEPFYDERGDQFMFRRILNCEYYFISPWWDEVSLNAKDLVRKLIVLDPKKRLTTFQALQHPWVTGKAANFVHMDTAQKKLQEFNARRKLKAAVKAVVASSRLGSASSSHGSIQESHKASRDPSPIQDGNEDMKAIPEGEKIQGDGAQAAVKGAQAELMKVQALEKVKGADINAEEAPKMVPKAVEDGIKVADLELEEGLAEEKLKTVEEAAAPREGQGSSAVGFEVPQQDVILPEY

C=CC(=O)Nc1ccc(CN(C(=O)Nc2c(Cl)c(OC)cc(OC)c2Cl)c2cc(Nc3ccc(N4CCN(C)CC4)cc3)ncn2)cc1
0.1%: FGFR4 (human)
100%: CDK2 (human) | CAMK2D (human) | PRKAA2 (human) | NLK (human) | RPS6KA6 KD2 (human) | CAMKK1 (human) | CAMK4 (human) | CAMK1G (human) | MYLK4 (human) | TLK2 (human) | MYO3B (human) | PRKACA (human) | EPHA4 (human) | MARK3 (human) | SRMS (human) | TNIK (human) | CDK16 (human) | RIOK2 (human) | DAPK3 (human) | PRKACB (human) | MAPK8 (human) | PAK1 (human) | EPHA2 (human) | PTK2B (human) | RIOK3 (human) | AXL (human)
12%: MAP3K9 (human)
31%: SIK1 (human)
9.1%: ABL2 (human)
0.8%: TAOK1 (human)

CS(=O)(=O)N1CCN(Cc2cc3nc(-c4cccc5[nH]ncc45)nc(N4CCOCC4)c3s2)CC1
100%: CDK2 (human) | CAMK2D (human) | SBK1 (human) | PRKAA2 (human) | NLK (human) | ERN1 (human) | RPS6KA6 KD2 (human) | CAMKK1 (human) | TAOK1 (human) | CAMK4 (human) | MYLK4 (human) | TLK2 (human) | MYO3B (human) | MAP3K1 (human) | MAP3K9 (human) | PRKACA (human) | EPHA4 (human) | MARK3 (human) | SRMS (human) | TNIK (human) | RIOK2 (human) | DAPK3 (human) | PRKACB (human) | ABL2 (human) | SIK1 (human) | MAPK8 (human) | MAP3K15 (human) | PAK1 (human) | FGFR4 (human) | EPHA2 (human) | IRAK1 (human) | PTK2B (human) | HIPK2 (human) | RIOK3 (human) | AXL (human)

Cc1n[nH]c2ccc(-c3cncc(OC[C@@H](N)Cc4c[nH]c5ccccc45)c3)cc12
14%: AXL (human)
0.45%: PRKACB (human)
6.2%: RIOK2 (human) | PAK1 (human)
2.5%: CAMK2D (human)
3.2%: TNIK (human)
9.4%: MARK3 (human)
0.05%: TAOK1 (human)
2.7%: RIOK3 (human)
0.85%: PRKACA (human)
16%: CDK16 (human)
12%: CAMK4 (human)
2.4%: CAMKK1 (human)
100%: CDK2 (human) | PRKAA2 (human) | NLK (human) | RPS6KA6 KD2 (human) | CAMK1G (human) | TLK2 (human) | MYO3B (human) | MAP3K9 (human) | EPHA4 (human) | SRMS (human) | ABL2 (human) | SIK1 (human) | MAPK8 (human) | FGFR4 (human) | EPHA2 (human)
3%: MYLK4 (human)
2.3%: DAPK3 (human)

CCN(CC)CCCCNc1ncc2cc(-c3cc(OC)cc(OC)c3)c(NC(=O)NC(C)(C)C)nc2n1
100%: CDK2 (human) | CAMK2D (human) | PRKAA2 (human) | NLK (human) | RPS6KA6 KD2 (human) | CAMKK1 (human) | CAMK4 (human) | CAMK1G (human) | MYLK4 (human) | TLK2 (human) | MYO3B (human) | MAP3K9 (human) | PRKACA (human) | EPHA4 (human) | MARK3 (human) | SRMS (human) | TNIK (human) | CDK16 (human) | DAPK3 (human) | PRKACB (human) | ABL2 (human) | SIK1 (human) | MAPK8 (human) | PAK1 (human) | EPHA2 (human) | PTK2B (human) | RIOK3 (human) | AXL (human)

CNC(=O)c1ccc(Nc2cc(Nc3ccccc3S(=O)(=O)C(C)C)c3cc[nH]c3n2)nc1
9.4%: ABL2 (human)
1.3%: AXL (human)
22%: CDK16 (human)
100%: CDK2 (human) | CAMK2D (human) | NLK (human) | RPS6KA6 KD2 (human) | CAMKK1 (human) | CAMK4 (human) | CAMK1G (human) | MYLK4 (human) | TLK2 (human) | MYO3B (human) | PRKACA (human) | EPHA4 (human) | SRMS (human) | DAPK3 (human) | PAK1 (human) | FGFR4 (human) | EPHA2 (human)
0.1%: PTK2B (human)
19%: TNIK (human)
0.65%: TAOK1 (human)
2.9%: RIOK3 (human)
7.3%: MAPK8 (human)
13%: MARK3 (human) | RIOK2 (human) | PRKACB (human)
0.85%: MAP3K9 (human)
11%: SIK1 (human)
8.9%: PRKAA2 (human)

From the kinase profiling compilation of Christmann-Franck et al. (2016)
